This test concerns the target T1, pEGFR in CUTO14 cells (Homo sapiens, UniProt P00533, DUP767-769).
T1 construct: endogenous in cells; host or cells: CUTO14 cells
As to the kind of experiment: Inhibitor activity on EGFR phosphorylation (pEGFR AlphaLISA, 2 h), CUTO14 cells. It is filed as cell-based. Here is the method:
CUTO14 cells were obtained from Dr. Robert C. Doebele at the University of Colorado.
Shake 350 rpm for 1 hr in the dark • 3.4 Prepare donor mix under low light conditions prior to use. Dispense 5 μL of donor mix to all the wells. Mix well on the shaker, seal and wrap in aluminum foil and incubate 1.5 hrs at room temperature in the dark • 3.5 Transfer 18.5 μL mixture to OptiPlate 384, and read using an Envision.
T1 sequence (P00533 with tags, fused parts or gaps DUP767-769): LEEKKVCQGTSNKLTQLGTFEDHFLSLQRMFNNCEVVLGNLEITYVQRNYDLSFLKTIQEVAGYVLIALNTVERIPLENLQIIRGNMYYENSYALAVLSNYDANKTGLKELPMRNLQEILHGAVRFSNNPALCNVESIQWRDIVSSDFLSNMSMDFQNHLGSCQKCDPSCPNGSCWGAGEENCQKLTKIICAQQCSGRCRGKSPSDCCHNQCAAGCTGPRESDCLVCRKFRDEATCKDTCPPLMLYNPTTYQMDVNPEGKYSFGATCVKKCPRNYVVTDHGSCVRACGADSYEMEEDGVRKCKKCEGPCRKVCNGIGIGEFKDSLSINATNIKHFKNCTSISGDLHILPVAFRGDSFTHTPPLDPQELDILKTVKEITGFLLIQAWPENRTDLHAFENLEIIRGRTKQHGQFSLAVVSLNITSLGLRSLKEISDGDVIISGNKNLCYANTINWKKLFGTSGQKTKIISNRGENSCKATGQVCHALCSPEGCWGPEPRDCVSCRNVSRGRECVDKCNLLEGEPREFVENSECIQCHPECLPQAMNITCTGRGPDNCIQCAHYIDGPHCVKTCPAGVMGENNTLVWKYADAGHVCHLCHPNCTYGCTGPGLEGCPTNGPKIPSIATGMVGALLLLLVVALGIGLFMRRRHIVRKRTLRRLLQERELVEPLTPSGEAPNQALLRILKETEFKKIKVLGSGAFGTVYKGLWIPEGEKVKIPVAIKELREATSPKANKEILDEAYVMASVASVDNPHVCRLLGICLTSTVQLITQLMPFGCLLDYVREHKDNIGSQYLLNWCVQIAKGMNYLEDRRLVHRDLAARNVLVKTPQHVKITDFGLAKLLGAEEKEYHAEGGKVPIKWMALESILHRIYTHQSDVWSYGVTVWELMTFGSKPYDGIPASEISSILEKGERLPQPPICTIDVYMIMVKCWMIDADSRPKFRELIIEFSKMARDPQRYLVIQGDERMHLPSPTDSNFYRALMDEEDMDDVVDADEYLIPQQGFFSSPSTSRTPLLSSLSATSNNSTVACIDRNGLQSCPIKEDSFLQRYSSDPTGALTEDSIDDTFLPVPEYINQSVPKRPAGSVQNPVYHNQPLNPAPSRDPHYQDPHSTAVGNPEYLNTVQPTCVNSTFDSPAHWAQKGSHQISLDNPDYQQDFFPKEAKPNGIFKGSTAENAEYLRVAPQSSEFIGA
Compound `C=CC(=O)N1CC(C)(C)C1COc1cnccc1-c1[nH]c2c(c1Nc1cccc(Cl)c1OC)C(=O)NCC2` (single isomer, unassigned) [compound 513] displayed an IC50 of less than 100 nM.

The compound `CC#CC(=O)N1CC[C@@H]1COc1cnccc1-c1[nH]c2c(c1Nc1cccc(Cl)c1CC)C(=O)NCC2` [compound 348, 2-(3-{[(2R)-1-(but-2-ynoyl)azetidin-2-yl]methoxy}pyridin-4-yl)-3-[(3-chloro-2-ethylphenyl)amino]-1H,5H,6H,7H-pyrrolo[3,2-c]pyridin-4-one] showed an IC50 of less than 100 nM.

In turn, `CC#CC(=O)N1CC[C@@H]1COc1cnccc1-c1[nH]c2c(c1Nc1cccc(F)c1OC)C(=O)NCC2` [compound 289, 2-(3-{[(2R)-1-(but-2-ynoyl)azetidin-2-yl]methoxy}pyridin-4-yl)-3-[(3-fluoro-2-methoxyphenyl)amino]-1H,5H,6H,7H-pyrrolo[3,2-c]pyridin-4-one] showed a concentration for half-maximal inhibition (IC50) of less than 100 nM.

The compound `C=C(F)C(=O)N1CC[C@H]1COc1cnccc1-c1[nH]c2c(c1Nc1cccc(F)c1OC)C(=O)NCC2` [compound 296, 3-[(3-fluoro-2-methoxyphenyl)amino]-2-(3-{[(2S)-1-(2-fluoroprop-2-enoyl)azetidin-2-yl]methoxy}pyridin-4-yl)-1H,5H,6H,7H-pyrrolo[3,2-c]pyridin-4-one] had an IC50 of less than 100 nM.

The compound `COc1c(F)cccc1Nc1c(-c2ccncc2C#C[C@H]2CC(C)(C)CN2C(=O)/C=C/CN(C)C)[nH]c2c1C(=O)NCC2` [compound 344, 2-(3-{2-[(2R)-1-[(2E)-4-(dimethylamino)but-2-enoyl]-4,4-dimethylpyrrolidin-2-yl]ethynyl}pyridin-4-yl)-3-[(3-fluoro-2-methoxyphenyl)amino]-1H,5H,6H,7H-pyrrolo[3,2-c]pyridin-4-one] displayed an IC50 of less than 100 nM.

With `C=CC(=O)N1[C@H]2CC[C@H](C2)[C@@H]1COc1cnccc1-c1[nH]c2c(c1Nc1cccc(Cl)c1OC)C(=O)NCC2` [compound 274, 3-[(3-chloro-2-methoxyphenyl)amino]-2-(3-{[(1S,3R,4R)-2-(prop-2-enoyl)-2-azabicyclo[2.2.1]heptan-3-yl]methoxy}pyridin-4-yl)-1H,5H,6H,7H-pyrrolo[3,2-c]pyridin-4-one], the IC50 is less than 100 nM.

The compound `CC#CC(=O)N1CC[C@H]1COc1cnccc1-c1[nH]c2c(c1Nc1cccc(Cl)c1OC)C(=O)NCC2` [compound 288, 2-(3-{[(2S)-1-(but-2-ynoyl)azetidin-2-yl]methoxy}pyridin-4-yl)-3-[(3-chloro-2-methoxyphenyl)amino]-1H,5H,6H,7H-pyrrolo[3,2-c]pyridin-4-one] showed an IC50 of less than 100 nM.

Turning to `C=CC(=O)NC1(C#Cc2cnccc2-c2[nH]c3c(c2Nc2cccc(Cl)c2OC)C(=O)NCC3)CCOC1` (single isomer, unassigned) [compound 322], the IC50 is less than 100 nM.

`CC#CC(=O)NC(C)(C)C#Cc1cnccc1-c1[nH]c2c(c1Nc1cccc(F)c1OC)C(=O)NCC2` [compound 302, N-[4-(4-{3-[(3-fluoro-2-methoxyphenyl)amino]-4-oxo-1H,5H,6H,7H-pyrrolo[3,2-c]pyridin-2-yl}pyridin-3-yl)-2-methylbut-3-yn-2-yl]but-2-ynamide] yielded an IC50 of less than 100 nM.

As for `C=CC(=O)N1CC[C@@]1(C)C#Cc1cnccc1-c1[nH]c2c(c1Nc1cccc(Cl)c1OC)C(=O)NCC2` [compound 550, 3-[(3-chloro-2-methoxyphenyl)amino]-2-(3-{2-[(2S)-2-methyl-1-(prop-2-enoyl)azetidin-2-yl]ethynyl}pyridin-4-yl)-1H,5H,6H,7H-pyrrolo[3,2-c]pyridin-4-one], the IC50 is more than 1000 nM.

As for `C=CC(=O)N1CC(C)(C)[C@H]1C#Cc1cnccc1-c1[nH]c2c(c1Nc1cccc(Cl)c1OC)C(=O)NCC2` [compound 232, 3-[(3-chloro-2-methoxyphenyl)amino]-2-(3-{2-[(2R)-3,3-dimethyl-1-(prop-2-enoyl)azetidin-2-yl]ethynyl}pyridin-4-yl)-1H,5H,6H,7H-pyrrolo[3,2-c]pyridin-4-one], the IC50 was less than 100 nM.

Compound `C=CC(=O)N1[C@@H](COc2cnccc2-c2[nH]c3c(c2Nc2cccc(F)c2OC)C(=O)NCC3)C[C@H]1C` (relative stereo) [compound 332] displayed an IC50 of less than 100 nM.

`C=CC(=O)N1C(C)CC1COc1cnccc1-c1[nH]c2c(c1Nc1cccc(F)c1OC)C(=O)NCC2` (centres unmarked) [compound 333] had an IC50 of less than 100 nM.

Regarding `C=CC(=O)NC1(C#Cc2cnccc2-c2[nH]c3c(c2Nc2cccc(F)c2OC)C(=O)NCC3)CC1` [compound 206, N-{1-[2-(4-{3-[(3-fluoro-2-methoxyphenyl)amino]-4-oxo-1H,5H,6H,7H-pyrrolo[3,2-c]pyridin-2-yl}pyridin-3-yl)ethynyl]cyclopropyl}prop-2-enamide], the IC50 is less than 100 nM.

`C=CC(=O)N1CC(C)(C)C[C@@H]1C#Cc1cnccc1-c1[nH]c2c(c1Nc1cccc(F)c1OC)C(=O)NCC2` [compound 253, 2-(3-{2-[(2R)-4,4-dimethyl-1-(prop-2-enoyl)pyrrolidin-2-yl]ethynyl}pyridin-4-yl)-3-[(3-fluoro-2-methoxyphenyl)amino]-1H,5H,6H,7H-pyrrolo[3,2-c]pyridin-4-one] registered a 50% inhibitory concentration (IC50) of less than 100 nM.

`C=CC(=O)N1CCC1(C)COc1cnccc1-c1[nH]c2c(c1Nc1cccc(F)c1CC)C(=O)NCC2` (single isomer, unassigned) [compound 359]: the IC50 was less than 100 nM.

Regarding `C=CC(=O)N(C)C(C)(C)C#Cc1cnccc1-c1[nH]c2c(c1Nc1cccc(F)c1OC)C(=O)NCC2` [compound 259, N-[4-(4-{3-[(3-fluoro-2-methoxyphenyl)amino]-4-oxo-1H,5H,6H,7H-pyrrolo[3,2-c]pyridin-2-yl}pyridin-3-yl)-2-methylbut-3-yn-2-yl]-N-methylprop-2-enamide], the IC50 was less than 100 nM.

With `C=CC(=O)N1CC(C)(C)[C@H]1COc1cnccc1-c1[nH]c2c(c1Nc1cccc(Cl)c1OC)C(=O)NCC2` [compound 512, 3-[(3-chloro-2-methoxyphenyl)amino]-2-(3-{[(2S)-3,3-dimethyl-1-(prop-2-enoyl)azetidin-2-yl]methoxy}pyridin-4-yl)-1H,5H,6H,7H-pyrrolo[3,2-c]pyridin-4-one], the IC50 was less than 100 nM.

Take `C=CC(=O)N1CCC1(C)COc1cnccc1-c1[nH]c2c(c1Nc1cccc(Cl)c1OC)C(=O)NCC2` (single isomer, unassigned) [compound 511]: the IC50 was less than 100 nM.

`C=CC(=O)N1CC(C)(C)C1C#Cc1cnccc1-c1[nH]c2c(c1Nc1cccc(F)c1OC)C(=O)NCC2` (single isomer, unassigned) [compound 249] registered an IC50 of less than 100 nM.

Regarding `COc1c(Cl)cccc1Nc1c(-c2ccncc2C#C[C@@]2(C)CCCN2C(=O)/C=C/CN(C)C)[nH]c2c1C(=O)NCC2` [compound 362, 3-[(3-chloro-2-methoxyphenyl)amino]-2-(3-{2-[(2R)-1-[(2E)-4-(dimethylamino)but-2-enoyl]-2-methylpyrrolidin-2-yl]ethynyl}pyridin-4-yl)-1H,5H,6H,7H-pyrrolo[3,2-c]pyridin-4-one], the IC50 was less than 100 nM.

`C=CC(=O)N[C@@H](C)C#Cc1cnccc1-c1[nH]c2c(c1Nc1cccc(F)c1OC)C(=O)NCC2` [compound 375, N-[(2S)-4-(4-{3-[(3-fluoro-2-methoxyphenyl)amino]-4-oxo-1H,5H,6H,7H-pyrrolo[3,2-c]pyridin-2-yl}pyridin-3-yl)but-3-yn-2-yl]prop-2-enamide] showed an IC50 of less than 100 nM.

In the case of `COc1c(F)cccc1Nc1c(-c2ccncc2C#C[C@@]2(C)CCCN2C(=O)/C=C/CN(C)C)[nH]c2c1C(=O)NCC2` [compound 335, 2-(3-{2-[(2R)-1-[(2E)-4-(dimethylamino)but-2-enoyl]-2-methylpyrrolidin-2-yl]ethynyl}pyridin-4-yl)-3-[(3-fluoro-2-methoxyphenyl)amino]-1H,5H,6H,7H-pyrrolo[3,2-c]pyridin-4-one], the IC50 was less than 100 nM.

Turning to `C=CC(=O)N1CC(C)(C)C1C#Cc1cnccc1-c1[nH]c2c(c1Nc1cccc(Cl)c1OC)C(=O)NCC2` (single isomer, unassigned) [compound 233], the IC50 was less than 100 nM.

Compound `C=CC(=O)N1CC2CC1(C#Cc1cnccc1-c1[nH]c3c(c1Nc1cccc(F)c1OC)C(=O)NCC3)C2` [compound 318, 3-[(3-fluoro-2-methoxyphenyl)amino]-2-(3-{2-[2-(prop-2-enoyl)-2-azabicyclo[2.1.1]hexan-1-yl]ethynyl}pyridin-4-yl)-1H,5H,6H,7H-pyrrolo[3,2-c]pyridin-4-one] came in with an IC50 of less than 100 nM.

For the compound `C=C(F)C(=O)N1CC[C@H]1COc1cnccc1-c1[nH]c2c(c1Nc1cccc(Cl)c1OC)C(=O)NCC2` [compound 363, 3-[(3-chloro-2-methoxyphenyl)amino]-2-(3-{[(2S)-1-(2-fluoroprop-2-enoyl)azetidin-2-yl]methoxy}pyridin-4-yl)-1H,5H,6H,7H-pyrrolo[3,2-c]pyridin-4-one], the IC50 is less than 100 nM.

Turning to `C=CC(=O)NC1(C#Cc2cnccc2-c2[nH]c3c(c2Nc2cccc(F)c2OC)C(=O)NCC3)COC1` [compound 263], the IC50 is less than 100 nM.

On to `CC#CC(=O)N1CCC[C@]1(C)C#Cc1cnccc1-c1[nH]c2c(c1Nc1cccc(F)c1OC)C(=O)NCC2` [compound 291, 2-(3-{2-[(2R)-1-(but-2-ynoyl)-2-methylpyrrolidin-2-yl]ethynyl}pyridin-4-yl)-3-[(3-fluoro-2-methoxyphenyl)amino]-1H,5H,6H,7H-pyrrolo[3,2-c]pyridin-4-one], for which the IC50 is less than 100 nM.

Compound `C=CC(=O)N1CC[C@]1(C)C#Cc1cnccc1-c1[nH]c2c(c1Nc1cccc(Cl)c1OC)C(=O)NCC2` [compound 551, 3-[(3-chloro-2-methoxyphenyl)amino]-2-(3-{2-[(2R)-2-methyl-1-(prop-2-enoyl)azetidin-2-yl]ethynyl}pyridin-4-yl)-1H,5H,6H,7H-pyrrolo[3,2-c]pyridin-4-one] showed an IC50 of more than 1000 nM.

The values are drawn from patent US20230364070A1, “PYRROLO[3,2-C]PYRIDIN-4-ONE DERIVATIVES USEFUL IN THE TREATMENT OF CANCER” (Scorpion Therapeutics, Inc., priority 2020, published 2023).
